Source: patent publication US20080268072A1, “Method of Improving Anticancer Effect of Pulsatillae Radix and a Composition Prepared by the Method” (Song-Bae Kim, priority 2004, published 2008)

What was measured:
LL/2 cancer = conditions: BDF1 mouse; cited from earlier work
NCI-H23 cell line = conditions: comparison with adriamicine; cited from earlier work
tumor = assay: Antitumor activity (test not specified)

Row | Molecule | inhibition effect against LL/2 cancer (LL/2 cancer) | activity against NCI-H23 cell line compared with adriamicine (NCI-H23 cell line) | antitumor activity (tumor)
1 | CC1OC(OC2C(O[C@H]3CC[C@@]4(C)C(CC[C@]5(C)C4CC=C4C6CC(C)(C)CC[C@]6(C(=O)O)CC[C@]45C)[C@]3(C)CO)OCC(OC3OC(CO)C(O)C(O)C3O)C2O)C(O)C(O)C1O (stereo partly drawn) [SB365, 3-0-[0-α-L-rhamnopyranosyl-(1→2)-[0-β-D-glucopyranosyl-(1→4)]-α-L-arabinopyranosyl]hederagenin] | 80% | more strong activity | –
2 | 3-0-[0-α-L-rhamnopyranosyl-(1→2)-[0-β-D-glucopyranosyl-(1→4)]-α-L-arabinopyranosyl]hederagenin 28-0-α-L-rhamnopyranosyl-(1→4-[0-β-D-glucopyranosyl-(1→6]-β-D-glucopyranosyl ester [SB 365-0] | – | – | no antitumor activity
